According to PubChem BioAssay (NCI):
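Where inhibition never reached the appropriate level, the endpoint shown equals the highest concentration tested. Otherwise, values were interpolated linearly from a five-concentration, 48-hour dose response in 96-well plates. TGI marks complete inhibition of growth.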

What was measured:
Experiment in all cases: NCI tumour cell line growth inhibition, 48 h
786-0 renal = test system: 786-0 renal
A498 renal = test system: A498 renal
A549 NSCLC = test system: A549 NSCLC
ACHN renal = test system: ACHN renal
CAKI-1 renal = test system: CAKI-1 renal
CCRF-CEM leukemia = test system: CCRF-CEM leukemia
COLO 205 colon = test system: COLO 205 colon
DLD-1 colon = test system: DLD-1 colon
DMS 273 small cell lung = test system: DMS 273 small cell lung
EKVX NSCLC = test system: EKVX NSCLC
HCC-2998 colon = test system: HCC-2998 colon
HCT-15 colon = test system: HCT-15 colon
HL-60(TB) leukemia = test system: HL-60(TB) leukemia
HOP-18 NSCLC = test system: HOP-18 NSCLC
HOP-92 NSCLC = test system: HOP-92 NSCLC
HT29 colon = test system: HT29 colon
IGROV1 ovarian = test system: IGROV1 ovarian
K-562 leukemia = test system: K-562 leukemia
KM12 colon = test system: KM12 colon
KM20L2 colon = test system: KM20L2 colon
LOX IMVI melanoma = test system: LOX IMVI melanoma
LXFL 529 NSCLC = test system: LXFL 529 NSCLC
M14 melanoma = test system: M14 melanoma
M19-MEL melanoma = test system: M19-MEL melanoma
MALME-3M melanoma = test system: MALME-3M melanoma
MOLT-4 leukemia = test system: MOLT-4 leukemia
NCI-H226 lung = test system: NCI-H226 lung
NCI-H23 lung = test system: NCI-H23 lung
NCI-H460 lung = test system: NCI-H460 lung
NCI-H522 lung = test system: NCI-H522 lung
OVCAR-3 ovarian = test system: OVCAR-3 ovarian
OVCAR-4 ovarian = test system: OVCAR-4 ovarian
OVCAR-5 ovarian = test system: OVCAR-5 ovarian
OVCAR-8 ovarian = test system: OVCAR-8 ovarian
RPMI-8226 leukemia = test system: RPMI-8226 leukemia
RXF 393 renal = test system: RXF 393 renal
SF-268 CNS = test system: SF-268 CNS
SF-295 CNS = test system: SF-295 CNS
SF-539 CNS = test system: SF-539 CNS
SK-MEL-2 melanoma = test system: SK-MEL-2 melanoma
SK-MEL-28 melanoma = test system: SK-MEL-28 melanoma
SK-MEL-5 melanoma = test system: SK-MEL-5 melanoma
SK-OV-3 ovarian = test system: SK-OV-3 ovarian
SN12C renal = test system: SN12C renal
SNB-19 CNS = test system: SNB-19 CNS
SNB-75 CNS = test system: SNB-75 CNS
SW-620 colon = test system: SW-620 colon
TK-10 renal = test system: TK-10 renal
U251 CNS = test system: U251 CNS
UACC-257 melanoma = test system: UACC-257 melanoma
UACC-62 melanoma = test system: UACC-62 melanoma
UO-31 renal = test system: UO-31 renal
XF 498 CNS = test system: XF 498 CNS
DMS 114 small cell lung = test system: DMS 114 small cell lung
HCT-116 colon = test system: HCT-116 colon
HOP-62 NSCLC = test system: HOP-62 NSCLC
SNB-78 CNS = test system: SNB-78 CNS
SR leukemia = test system: SR leukemia

Q: How did the TGI (786-0 renal) turn out when `O=C(O)CCCNS(=O)(=O)c1ccccc1` was run?
A: > 100 µM

Q: What about the TGI (A498 renal) of the same compound?
A: > 100 µM

Q: What about the TGI (A549 NSCLC) of the same compound?
A: > 100 µM

Q: And the TGI (ACHN renal)?
A: > 100 µM

Q: What about the TGI (CAKI-1 renal) of the same compound?
A: > 100 µM

Q: And the TGI (CCRF-CEM leukemia)?
A: > 100 µM

Q: And the TGI (COLO 205 colon)?
A: > 100 µM

Q: And the TGI (DLD-1 colon)?
A: > 100 µM

Q: And the TGI (DMS 273 small cell lung)?
A: > 100 µM

Q: And the TGI (EKVX NSCLC)?
A: > 100 µM

Q: What about the TGI (HCC-2998 colon) of the same compound?
A: > 100 µM

Q: What about the TGI (HCT-15 colon) of the same compound?
A: > 100 µM

Q: And the TGI (HL-60(TB) leukemia)?
A: > 100 µM

Q: What about the TGI (HOP-18 NSCLC) of the same compound?
A: > 100 µM

Q: What about the TGI (HOP-92 NSCLC) of the same compound?
A: > 100 µM

Q: What about the TGI (HT29 colon) of the same compound?
A: > 100 µM

Q: And the TGI (IGROV1 ovarian)?
A: > 100 µM

Q: And the TGI (K-562 leukemia)?
A: > 100 µM

Q: What about the TGI (KM12 colon) of the same compound?
A: > 100 µM

Q: And the TGI (KM20L2 colon)?
A: > 100 µM

Q: What about the TGI (LOX IMVI melanoma) of the same compound?
A: > 100 µM

Q: And the TGI (LXFL 529 NSCLC)?
A: > 100 µM

Q: What about the TGI (M14 melanoma) of the same compound?
A: > 100 µM

Q: And the TGI (M19-MEL melanoma)?
A: > 100 µM

Q: What about the TGI (MALME-3M melanoma) of the same compound?
A: > 100 µM

Q: And the TGI (MOLT-4 leukemia)?
A: > 100 µM

Q: What about the TGI (NCI-H226 lung) of the same compound?
A: > 100 µM

Q: And the TGI (NCI-H23 lung)?
A: > 100 µM

Q: And the TGI (NCI-H460 lung)?
A: > 100 µM

Q: And the TGI (NCI-H522 lung)?
A: > 100 µM

Q: And the TGI (OVCAR-3 ovarian)?
A: > 100 µM

Q: And the TGI (OVCAR-4 ovarian)?
A: > 100 µM

Q: And the TGI (OVCAR-5 ovarian)?
A: > 100 µM

Q: What about the TGI (OVCAR-8 ovarian) of the same compound?
A: > 100 µM

Q: And the TGI (RPMI-8226 leukemia)?
A: > 100 µM

Q: And the TGI (RXF 393 renal)?
A: > 100 µM

Q: What about the TGI (SF-268 CNS) of the same compound?
A: > 100 µM

Q: What about the TGI (SF-295 CNS) of the same compound?
A: > 100 µM

Q: And the TGI (SF-539 CNS)?
A: > 100 µM

Q: What about the TGI (SK-MEL-2 melanoma) of the same compound?
A: > 100 µM

Q: What about the TGI (SK-MEL-28 melanoma) of the same compound?
A: > 100 µM

Q: What about the TGI (SK-MEL-5 melanoma) of the same compound?
A: > 100 µM

Q: And the TGI (SK-OV-3 ovarian)?
A: > 100 µM

Q: And the TGI (SN12C renal)?
A: > 100 µM

Q: What about the TGI (SNB-19 CNS) of the same compound?
A: > 100 µM

Q: And the TGI (SNB-75 CNS)?
A: > 100 µM

Q: And the TGI (SW-620 colon)?
A: > 100 µM

Q: And the TGI (TK-10 renal)?
A: > 100 µM

Q: What about the TGI (U251 CNS) of the same compound?
A: > 100 µM

Q: And the TGI (UACC-257 melanoma)?
A: > 100 µM

Q: And the TGI (UACC-62 melanoma)?
A: > 100 µM

Q: What about the TGI (UO-31 renal) of the same compound?
A: > 100 µM

Q: What about the TGI (XF 498 CNS) of the same compound?
A: > 100 µM

Q: Which TGI (A498 renal) does the source give for `O=C(Nc1ccc(Cl)c(Cl)c1)C(=O)C(C(=O)c1ccccc1F)C1OC(=O)c2ccccc21` (configuration not stated) here?
A: > 100 µM

Q: What about the TGI (A549 NSCLC) of the same compound?
A: 81.4 µM

Q: And the TGI (ACHN renal)?
A: > 100 µM

Q: And the TGI (CAKI-1 renal)?
A: 80.2 µM

Q: And the TGI (CCRF-CEM leukemia)?
A: 50.9 µM

Q: And the TGI (COLO 205 colon)?
A: 33.1 µM

Q: What about the TGI (DLD-1 colon) of the same compound?
A: > 100 µM

Q: And the TGI (DMS 114 small cell lung)?
A: 46.4 µM

Q: And the TGI (DMS 273 small cell lung)?
A: 46.9 µM

Q: And the TGI (EKVX NSCLC)?
A: 68.6 µM

Q: What about the TGI (HCC-2998 colon) of the same compound?
A: 32.7 µM

Q: And the TGI (HCT-116 colon)?
A: 30.4 µM

Q: What about the TGI (HCT-15 colon) of the same compound?
A: 35.5 µM

Q: And the TGI (HL-60(TB) leukemia)?
A: 41.2 µM

Q: What about the TGI (HOP-62 NSCLC) of the same compound?
A: 76.2 µM

Q: And the TGI (HOP-92 NSCLC)?
A: > 100 µM

Q: What about the TGI (HT29 colon) of the same compound?
A: 88.8 µM

Q: What about the TGI (IGROV1 ovarian) of the same compound?
A: > 100 µM

Q: And the TGI (K-562 leukemia)?
A: > 100 µM

Q: What about the TGI (KM12 colon) of the same compound?
A: 37 µM

Q: What about the TGI (KM20L2 colon) of the same compound?
A: 55.1 µM

Q: And the TGI (LOX IMVI melanoma)?
A: 50.4 µM

Q: And the TGI (LXFL 529 NSCLC)?
A: > 100 µM

Q: And the TGI (M14 melanoma)?
A: 34.3 µM

Q: And the TGI (M19-MEL melanoma)?
A: 41.7 µM

Q: What about the TGI (MOLT-4 leukemia) of the same compound?
A: > 100 µM

Q: What about the TGI (NCI-H226 lung) of the same compound?
A: 43.7 µM

Q: What about the TGI (NCI-H23 lung) of the same compound?
A: 75.9 µM

Q: And the TGI (NCI-H460 lung)?
A: 43.8 µM

Q: And the TGI (NCI-H522 lung)?
A: 27.3 µM

Q: What about the TGI (OVCAR-4 ovarian) of the same compound?
A: > 100 µM

Q: What about the TGI (OVCAR-5 ovarian) of the same compound?
A: > 100 µM

Q: What about the TGI (OVCAR-8 ovarian) of the same compound?
A: 28.5 µM

Q: What about the TGI (RPMI-8226 leukemia) of the same compound?
A: 55.9 µM

Q: And the TGI (RXF 393 renal)?
A: 41.8 µM

Q: What about the TGI (SF-268 CNS) of the same compound?
A: 92.1 µM

Q: And the TGI (SF-295 CNS)?
A: > 100 µM

Q: And the TGI (SF-539 CNS)?
A: 28.1 µM

Q: What about the TGI (SK-MEL-2 melanoma) of the same compound?
A: 38.2 µM

Q: And the TGI (SK-MEL-28 melanoma)?
A: 75.2 µM

Q: What about the TGI (SK-MEL-5 melanoma) of the same compound?
A: 35.9 µM

Q: And the TGI (SK-OV-3 ovarian)?
A: 69.9 µM

Q: And the TGI (SN12C renal)?
A: 60.2 µM

Q: And the TGI (SNB-19 CNS)?
A: 47.8 µM

Q: What about the TGI (SNB-75 CNS) of the same compound?
A: 58.8 µM

Q: What about the TGI (SNB-78 CNS) of the same compound?
A: 73.1 µM

Q: And the TGI (SR leukemia)?
A: > 100 µM

Q: What about the TGI (SW-620 colon) of the same compound?
A: 62.3 µM

Q: What about the TGI (TK-10 renal) of the same compound?
A: 93.8 µM

Q: And the TGI (U251 CNS)?
A: 28.1 µM

Q: What about the TGI (UACC-257 melanoma) of the same compound?
A: > 100 µM

Q: And the TGI (UACC-62 melanoma)?
A: 28.3 µM

Q: And the TGI (UO-31 renal)?
A: 37.2 µM

Q: What about the TGI (XF 498 CNS) of the same compound?
A: 79.5 µM
